Reference: patent publication US20210062146A1, “OPTIMIZED IN VITRO CELLULAR SYSTEM FOR BBB PERMEABILITY LINKED NEUROACTIVITY SCREENING” (priority 2019, published 2021)
Like-named read-outs stand apart in the source and are kept apart here.

Legend:
[1] = human
in vitro [2] = details: human
in vitro [3] = details: human; remark: listed apart in the source
[4] = test system: direct contact triculture; assay: Triculture cell viability assay (MTT); format: cell-based, human; details: following 3 hours of permeation; no significant change vs control (p>0.05)
[5] = test system: NVU model (direct contact triculture with SH-SY5Y neurons); details: for flux: human, 3 h, 50 μM
in vitro [6] = details: human; remark: listed apart in the source
SH-SY5Y neurons = assay: BBB permeability linked neuroactivity (Neurite Outgrowth Staining Kit); details: 50 μM initial apical concentration, 3 hour permeation, n=4
[7] = test system: direct contact triculture (astrocytes, pericytes, HBEC-5i); details: optimized triculture; radiolabeled marker, 0.25 μCi/mL in HBSS
[8] = test system: NVU model (direct contact triculture with SH-SY5Y neurons); assay: Permeability across optimized NVU model (triculture with SH-SY5Y neurons in basolateral chamber)

Row | Molecule | Papp A→B at 180 min (in vitro [3]) | viability of the triculture (MTT), percent of the control [4] | flux [5] | Papp A→B at 150 min, 25 μM (in vitro [2]) | further results
1 | COc1cc2c(c(OC)c1OC)-c1ccc(OC)c(=O)cc1[C@@H](NC(C)=O)CC2 [colchicine] |  |  |  |  | Papp A→B at 150 min, 25 μM [1]: 18.7 ×10⁻⁶ cm/s
2 | N[C@@H](Cc1c[nH]cn1)C(=O)O [L-histidine] |  |  |  |  | Papp A→B at 90 min, 0.25 μCi/mL (in vitro [2]): 52.6 ×10⁻⁶ cm/s
3 | COc1ccc2[nH]cc(CCNC(C)=O)c2c1 [melatonin] | 18.3 ×10⁻⁶ cm/s |  |  |  | 
4 | CN1CCN(C2=Nc3cc(Cl)ccc3Nc3ccccc32)CC1 [clozapine] | 11.4 ×10⁻⁶ cm/s | 99±4% | 372±19 pg/cm^2·sec | 8.15 ×10⁻⁶ cm/s | change in permeation rate across the NVU model in comparison to the optimized triculture alone [5]: significant increase; viability at 3 h, 50 μM (in vitro [6]): 143 ± 20%; neurite outgrowth, percent of control NVU SH-SY5Y cells with vehicle (SH-SY5Y neurons): 111±12%
5 | inulin |  |  |  |  | Papp [7]: 1.55×10^−5±0.01 cm/sec
6 | CS(=O)(=O)CCNCc1ccc(-c2ccc3ncnc(Nc4ccc(OCc5cccc(F)c5)c(Cl)c4)c3c2)o1 [Lapatinib] |  |  |  |  | detection in the receiver chamber after 3 hours [8]: undetectable
7 | NC(=O)N1c2ccccc2C=Cc2ccccc21 [carbamazepine] |  | 103±5% | 310±9 pg/cm^2·sec | 27.7 ×10⁻⁶ cm/s | Papp [5]: 25.37±2.80×0^−6 cm/sec; viability at 3 h, 50 μM (in vitro [6]): 96 ± 18%
8 | COc1cc2nc(N3CCN(C(=O)c4ccco4)CC3)nc(N)c2cc1OC [prazosin] | 3.9 ×10⁻⁶ cm/s | 82±6% | 166±14 pg/cm^2·sec | 6.16 ×10⁻⁶ cm/s | change in permeation rate across the NVU model in comparison to the optimized triculture alone [5]: significant decreases
9 | OC[C@@H](O)[C@@H](O)[C@H](O)[C@H](O)CO [mannitol] |  |  |  |  | Papp A→B at 90 min, 0.25 μCi/mL (in vitro [2]): 19.9 ×10⁻⁶ cm/s
10 | Cn1c(=O)c2c(ncn2C)n(C)c1=O [caffeine] | 30.7 ×10⁻⁶ cm/s | 104±25% | 269±14 pg/cm^2·sec | 28.9 ×10⁻⁶ cm/s | viability at 3 h, 50 μM (in vitro [6]): 159 ± 34%; neurite outgrowth, percent of control NVU SH-SY5Y cells with vehicle (SH-SY5Y neurons): 122±26%
11 | PEG-4000 |  |  |  |  | Papp [7]: 0.78×10^−5±0.00 cm/sec
